Results as given in US8952024B2, “Herbicidal pyrimidone derivatives” (E I du Pont de Nemours and Company, priority 2009, dated 2015).

Tests used:
Assay in all cases: Test B pre-/postemergence plant response
Assay type in all cases: in vivo
[1] = test system: Surinam grass (Brachiaria decumbens); conditions: for Surinam Grass plant response rating (0 to 100 scale): 62 g ai/ha, postemergence, 0 is no effect, 100 is complete control, 13 to 15 days; for Plant response rating, Surinam Grass: Postemergence, scale 0 to 100 (0 no effect, 100 complete control)
In short: (§1)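 Seeds were sown in loam soil/sand blend and treated preemergence with compound in non-phytotoxic solvent mixture containing surfactant; postemergence sprays, same formulation, went onto plants 2 to 18 cm (1- to 4-leaf stage) in peat-based planting medium. Greenhouse 13 to 15 days, then visual rating versus untreated controls, 0 (no effect) to 100 (complete control).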

[2] = test system: pigweed (Amaranthus retroflexus); conditions: for Pigweed plant response rating (0 to 100 scale): 62 g ai/ha, 0 is no effect, 13 to 15 days
In short: as §1

[3] = test system: downy bromegrass (Bromus tectorum); conditions: for Bromegrass, Downy plant response rating (0 to 100 scale): 62 g ai/ha, 0 is no effect, 13 to 15 days
In short: as §1

[4] = test system: green foxtail (Setaria viridis); conditions: for Foxtail, Green plant response rating (0 to 100 scale): 62 g ai/ha, 0 is no effect, 13 to 15 days
In short: as §1

[5] = test system: large crabgrass (Digitaria sanguinalis); conditions: for Crabgrass, Large plant response rating (0 to 100 scale): 62 g ai/ha, 0 is no effect, 13 to 15 days
In short: as §1

[6] = test system: ragweed (common ragweed, Ambrosia elatior); conditions: for Ragweed plant response rating (0 to 100 scale): 62 g ai/ha, postemergence, 0 is no effect, 100 is complete control, 13 to 15 days; for Plant response rating, Ragweed: Postemergence, scale 0 to 100 (0 no effect, 100 complete control)
In short: as §1

[7] = test system: Italian ryegrass (Lolium multiflorum); conditions: for Ryegrass, Italian plant response rating (0 to 100 scale): 62 g ai/ha, postemergence, 0 is no effect, 100 is complete control, 13 to 15 days; for Plant response rating, Ryegrass, Italian: Postemergence, scale 0 to 100 (0 no effect, 100 complete control)
In short: as §1

[8] = test system: goosegrass (Eleusine indica); conditions: for Goosegrass plant response rating (0 to 100 scale): 62 g ai/ha, 0 is no effect, 13 to 15 days
In short: as §1

[9] = test system: wheat (Triticum aestivum); conditions: for Wheat plant response rating (0 to 100 scale): 62 g ai/ha, postemergence, 0 is no effect, 100 is complete control, 13 to 15 days; for Plant response rating, Wheat: Postemergence, 125 g ai/ha, scale 0 to 100 (0 no effect, 100 complete control)
In short: as §1

[10] = test system: velvetleaf (Abutilon theophrasti); conditions: for Velvetleaf plant response rating (0 to 100 scale): 62 g ai/ha, postemergence, 0 is no effect, 100 is complete control, 13 to 15 days; for Plant response rating, Velvetleaf: Postemergence, scale 0 to 100 (0 no effect, 100 complete control)
In short: as §1

[11] = test system: woolly cupgrass (Eriochloa villosa); conditions: for Cupgrass, Woolly plant response rating (0 to 100 scale): 62 g ai/ha, 0 is no effect, 13 to 15 days
In short: as §1

[12] = test system: yellow nutsedge (Cyperus esculentus); conditions: for Nutsedge, Yellow plant response rating (0 to 100 scale): 62 g ai/ha, 0 is no effect, 13 to 15 days
In short: as §1

[13] = test system: lambsquarters (Chenopodium album); conditions: for Lambsquarters plant response rating (0 to 100 scale): 62 g ai/ha, 0 is no effect, 13 to 15 days
In short: as §1

[14] = 31 g ai/ha, postemergence, scale 0 to 100, 0 is no effect, 100 is complete control
[15] = postemergence, 100 is complete control
[16] = Postemergence, 125 g ai/ha, scale 0 to 100 (0 no effect, 100 complete control)
[17] = Postemergence, 250 g ai/ha, scale 0 to 100 (0 no effect, 100 complete control)

CCCn1c(-c2ccc(F)cc2)ncc(C(=O)C2=C(O)CCCC2=O)c1=O [Compound 102]
70: Plant response rating, Pigweed [2, 14] | Pigweed plant response rating (0 to 100 scale) [2, 15] | Plant response rating, Crabgrass, Large [5, 14] | Goosegrass plant response rating (0 to 100 scale) [8, 15] | Plant response rating, Cupgrass, Woolly [11, 14]
85: Plant response rating, Surinam Grass ([1]; 250 g ai/ha) | Plant response rating, Crabgrass, Large [5, 16] | Plant response rating, Ragweed ([6]; 125 g ai/ha) | Plant response rating, Cupgrass, Woolly [11, 17]
98: Plant response rating, Pigweed [2, 17] | Lambsquarters plant response rating (0 to 100 scale) [13, 15]
30: Plant response rating, Bromegrass, Downy [3, 17]
100: Velvetleaf plant response rating (0 to 100 scale) [10] | Plant response rating, Velvetleaf ([10]; 125 g ai/ha) | Plant response rating, Velvetleaf ([10]; 250 g ai/ha) | Plant response rating, Lambsquarters [13, 16] | Plant response rating, Lambsquarters [13, 17]
0: Plant response rating, Bromegrass, Downy [3, 14] | Ryegrass, Italian plant response rating (0 to 100 scale) [7]
45: Plant response rating, Nutsedge, Yellow [12, 14]
75: Surinam Grass plant response rating (0 to 100 scale) [1] | Plant response rating, Surinam Grass ([1]; 125 g ai/ha) | Cupgrass, Woolly plant response rating (0 to 100 scale) [11, 15] | Plant response rating, Cupgrass, Woolly [11, 16] | Plant response rating, Nutsedge, Yellow [12, 16]
90: Foxtail, Green plant response rating (0 to 100 scale) [4, 15] | Plant response rating, Foxtail, Green [4, 16] | Plant response rating, Crabgrass, Large [5, 17] | Plant response rating, Goosegrass [8, 17]
10: Bromegrass, Downy plant response rating (0 to 100 scale) [3, 15] | Plant response rating, Bromegrass, Downy [3, 16] | Plant response rating, Ryegrass, Italian ([7]; 250 g ai/ha) | Wheat plant response rating (0 to 100 scale) [9]
95: Plant response rating, Pigweed [2, 16] | Plant response rating, Foxtail, Green [4, 17] | Plant response rating, Ragweed ([6]; 250 g ai/ha) | Plant response rating, Lambsquarters [13, 14]
65: Nutsedge, Yellow plant response rating (0 to 100 scale) [12, 15]
55: Plant response rating, Goosegrass [8, 14]
20: Plant response rating, Wheat [9]
5: Plant response rating, Ryegrass, Italian ([7]; 125 g ai/ha)
80: Plant response rating, Foxtail, Green [4, 14] | Crabgrass, Large plant response rating (0 to 100 scale) [5, 15] | Ragweed plant response rating (0 to 100 scale) [6] | Plant response rating, Goosegrass [8, 16] | Plant response rating, Nutsedge, Yellow [12, 17]

COCC(C)n1c(-c2ccccc2)ncc(C(=O)C2=C(O)CCCC2=O)c1=O (centres unmarked) [Compound 107]
85: Plant response rating, Surinam Grass ([1]; 250 g ai/ha) | Crabgrass, Large plant response rating (0 to 100 scale) [5, 15] | Ragweed plant response rating (0 to 100 scale) [6] | Plant response rating, Goosegrass [8, 17] | Plant response rating, Nutsedge, Yellow [12, 17]
98: Plant response rating, Foxtail, Green [4, 17] | Plant response rating, Ragweed ([6]; 250 g ai/ha)
70: Plant response rating, Foxtail, Green [4, 14]
90: Plant response rating, Foxtail, Green [4, 16] | Plant response rating, Crabgrass, Large [5, 16] | Plant response rating, Lambsquarters [13, 14]
80: Plant response rating, Surinam Grass ([1]; 125 g ai/ha) | Plant response rating, Cupgrass, Woolly [11, 17]
5: Bromegrass, Downy plant response rating (0 to 100 scale) [3, 15] | Plant response rating, Ryegrass, Italian ([7]; 125 g ai/ha) | Plant response rating, Ryegrass, Italian ([7]; 250 g ai/ha) | Wheat plant response rating (0 to 100 scale) [9] | Plant response rating, Wheat [9]
95: Plant response rating, Pigweed [2, 14] | Plant response rating, Crabgrass, Large [5, 17] | Plant response rating, Ragweed ([6]; 125 g ai/ha)
75: Surinam Grass plant response rating (0 to 100 scale) [1] | Foxtail, Green plant response rating (0 to 100 scale) [4, 15] | Plant response rating, Crabgrass, Large [5, 14] | Plant response rating, Goosegrass [8, 14] | Goosegrass plant response rating (0 to 100 scale) [8, 15] | Plant response rating, Goosegrass [8, 16] | Plant response rating, Cupgrass, Woolly [11, 16] | Plant response rating, Nutsedge, Yellow [12, 14] | Nutsedge, Yellow plant response rating (0 to 100 scale) [12, 15] | Plant response rating, Nutsedge, Yellow [12, 16]
30: Plant response rating, Bromegrass, Downy [3, 17]
0: Plant response rating, Bromegrass, Downy [3, 14] | Ryegrass, Italian plant response rating (0 to 100 scale) [7]
100: Pigweed plant response rating (0 to 100 scale) [2, 15] | Plant response rating, Pigweed [2, 16] | Plant response rating, Pigweed [2, 17] | Velvetleaf plant response rating (0 to 100 scale) [10] | Plant response rating, Velvetleaf ([10]; 125 g ai/ha) | Plant response rating, Velvetleaf ([10]; 250 g ai/ha) | Lambsquarters plant response rating (0 to 100 scale) [13, 15] | Plant response rating, Lambsquarters [13, 16] | Plant response rating, Lambsquarters [13, 17]
10: Plant response rating, Bromegrass, Downy [3, 16]
65: Plant response rating, Cupgrass, Woolly [11, 14] | Cupgrass, Woolly plant response rating (0 to 100 scale) [11, 15]
